Measured values as given in patent US12661405B2, “Protected HDAC (histone deacetylase) inhibitors” (LIGHTOX LIMITED, priority 2021, dated 2026).
Where two headings read alike, the source gives them in different places.

Columns and labels:
HaCaT keratinocytes = experiment: Fluorescein diacetate cellular viability assay; assay type: cell-based; conditions: Homo sapiens, light or radiation study, read after 24 h
Procedure: A fluorescein diacetate cellular viability assay measuring the viability of HaCaT keratinocytes in response to treatment with compound 92 without irradiation (no light) and when irradiated (Light) was carried out as follows:
HaCaT keratinocyte cells were seeded in two 96 well plates and incubated for 24 h at 37° C. 5% CO2. The incubating media was removed and compound 92 was added at a range of concentrations, along with a dimethyl sulfoxide (DMSO) control, before the cells were incubated for one hour at 37° C. 5% CO2, whereupon one plate was irradiated at 405 nm for 5 min (72 mW/cm^2). Both plates were then incubated at 37° C. 5% CO2 for 24 h. The media was removed, and cells were washed with 1× phosphate buffered saline (PBS), then fluorescein diacetate (FDA) was added, and the cells were incubated at RT, in the dark, for 10 min. The fluorescein diacetate stain was then removed, and cells were washed with 1× phosphate buffered saline. The plates were read at 485/520 nm to determine cell viability at differing treatment concentrations of compound 92 with and without light exposure.

HDAC enzymes = experiment: Immunofluorescence imaging with anti-acetyl-H3 primary antibody (acetylated H3 histones); assay type: cell-based; conditions: HaCaT keratinocytes, compound at 5 μM
Procedure: HaCaT or SCC-4 cells were seeded at 50,000 cells per well in sterile coverslip containing 6-well plates. The next day, cells were treated with the compound of interest for 30 minutes before “Light” treated cells were irradiated. The following day, cells were then fixed using 4% PFA, permeabilised using Triton X-100/Tween 20, blocked in BSA/goat serum (dependent on the antibodies) and stained with primary then secondary antibodies before coverslips were mounted on slides and imaged on a Zeiss LSCM 880.
Immunofluorescence imaging of HaCaT keratinocytes treated with compound 92 (5 μM) and ethanol (EtOH), and co-treated with an anti-acetyl-H3 primary antibody that detects the presence of acetylated H3 histones was carried out as follows:
[…] Cells were washed in phosphate buffered saline then fixed in 4% PFA. Cells were washed again with phosphate buffered saline before blocking and permeabilization with 0.3% triton 100-X/5% goat serum in phosphate buffered saline for 60 min. Cells were then washed with phosphate buffered saline and anti-acetyl-histone 3 antibody was added and incubated overnight at 4° C. Second antibody (Alexa-594 anti-rabbit) was added for 45 min before cells were washed again and mounted for imaging.
This delayed behaviour is indicative of an initial lag phase as compound 92 is enzymatically metabolised to the active form.

Acetylated H3 build-up (nuclear ring phenotype) after one hour (HDAC enzymes; one hour): characteristic nuclear ring phenotype
Acetylated H3 build-up (nuclear ring phenotype) after ten minutes (HDAC enzymes; ten minutes): limited activity
SMILES: COC(=O)/C=C/c1ccc(C#Cc2cnc(N3CCN(C(=O)CCCCCCC(=O)NOC(C)=O)CC3)s2)cn1 [compound 92, Methyl (2E)-3-(5-{2-[2-(4-{7-[(acetyloxy)carbamoyl]heptanoyl}piperazin-1-yl)-1,3-thiazol-5-yl]ethynyl}pyridin-2-yl)prop-2-enoate]
IC50 (HaCaT keratinocytes; 1 h treatment, irradiated at 405 nm for 5 min (72 mW/cm^2), read-out: IC50 cell viability, light activation): 0.69 µM
IC50 (HaCaT keratinocytes; no irradiation, read-out: IC50 cell viability, without light activation): 5.5 µM
